Patent US6365191B1, “Formulations of paclitaxel, its derivatives or its analogs entrapped into nanoparticles of polymeric micelles, process for preparing same and the use thereof” (Dabur Research Foundation, priority 1999, dated 2002)

Experiment: Stability of the resulting drug solutions (paclitaxel in nanoparticles of polymeric micelles)
Type: physicochemical
Procedure: (§1) The polymer (5 mg) was dissolved in 5 ml of the diluting fluid followed by the addition of the anionic surfactant sodium deoxycholate (5 mg) to obtain a clear solution. Paclitaxel solution in absolute alcohol (20 mg/ml) was then added to the solution of polymer and the surfactant to obtain drug concentrations of 0.1, 0.15 and 0.2 mg/ml. Different diluting fluids were tried and the stability of the resulting drug solutions are tabulated below:
(§2) The polymer (5 mg) was dissolved in 5 ml of the diluting fluid followed by the addition of the anionic surfactant sodium deoxycholate (5 mg) to obtain a clear solution. Paclitaxel solution in absolute alcohol (20 mg/ml) was then added to the solution of polymer and the surfactant to get drug concentrations of 0.2, 0.25 and 0.3 mg/ml. The stability of the resulting drug solutions are tabulated below:
as §1, with “of” for “of 0.1, 0.15 and”
as §2, with “solution. pH of the resulting solution was adjusted with sodium citrate.” for “solution.”, “obtain” for “get”, “0.2” for “0.2, 0.25 and 0.3”, “Results” for “The stability of the resulting drug solutions”
The requisite amount of polymer was dissolved in 5 ml of the diluting fluid followed by the addition of requisite amount of anionic surfactant sodium deoxycholate to obtain the concentrations shown in the table below. pH of the resulting solution was adjusted to 6.4-6.8 with sodium citrate. Paclitaxel solution in absolute alcohol (20 mg/ml) was then added to the solution of polymer and the surfactant to obtain drug concentrations of 0.2 mg/ml. Results are tabulated below:
The polymer (0.625 mg) was dissolved in 5 ml of the diluting fluid followed by the addition of the anionic surfactant sodium deoxycholate to obtain a clear solution. pH of the resulting solution was adjusted to 6.4-6.8 with sodium citrate.
Paclitaxel solution in absolute alcohol (20 mg/ml) was then added to the solution of polymer and the surfactant to obtain drug concentrations of 0.2 mg/ml. Results are tabulated below:
The requisite amount of the polymer was dissolved in 5 ml of the diluting fluid followed by the addition of requisite amount of the anionic surfactant sodium deoxycholate to obtain the concentrations shown in the table below. pH of the resulting solution was adjusted to 6.4-6.8 with sodium citrate. Paclitaxel solution in absolute alcohol (20 mg/ml) was then added to the solution of polymer and the surfactant to get drug concentrations of 0.2, 0.5, 0.6, 0.7, 0.8, 2.4, 3.2, 4.0, and 10 mg/ml. Results are tabulated below:
The polymer (1.5 mg) was dissolved in 5 ml of the diluting fluid followed by the addition of the anionic surfactant sodium to obtain concentrations of 0, 0.10, 0.15, 0.20 and 0.25 mg/ml. pH of the resulting solution was adjusted to 6.4-6.8 with sodium citrate. Paclitaxel solution in absolute alcohol (20 mg/ml) was then added to the solution of polymer and the surfactant to obtain drug concentrations of 0.6 mg/ml. Results are tabulated below:
The required amount of the drug solution (3 ml) is added to the vehicle to obtain a drug concentration of 0.6 mg/ml. The perfusion fluid is stable for more than 12 hrs without any apparent signs of precipitation of drug. Stability is also indicated by the fact that more than 90% of the drug is available in solution form at the end of 24 hrs, when analyzed by HPLC.

CC(=O)O[C@H]1C(=O)[C@@]2(C)[C@H]([C@H](OC(=O)c3ccccc3)[C@]3(O)C[C@H](OC(=O)[C@H](O)[C@@H](NC(=O)c4ccccc4)c4ccccc4)C(C)=C1C3(C)C)[C@]1(OC(C)=O)CO[C@@H]1C[C@@H]2O [Paclitaxel, paclitaxel]
Stability (Examples 1-9, row 1: Water for Injection, polymer 1 mg/ml, sodium DOC 1 mg/ml, paclitaxel 0.10 mg/ml, 10% loading): <1 h | Stability (Examples 1-9, row 2: Water for Injection, polymer 1 mg/ml, sodium DOC 1 mg/ml, paclitaxel 0.15 mg/ml, 15% loading): <1 h | Stability (Examples 1-9, row 3: Water for Injection, polymer 1 mg/ml, sodium DOC 1 mg/ml, paclitaxel 0.20 mg/ml, 20% loading): <1 h | Stability (Examples 1-9, row 4: Normal Saline, polymer 1 mg/ml, sodium DOC 1 mg/ml, paclitaxel 0.10 mg/ml, 10% loading): <1 h | Stability (Examples 1-9, row 5: Normal Saline, polymer 1 mg/ml, sodium DOC 1 mg/ml, paclitaxel 0.15 mg/ml, 15% loading): <1 h | Stability (Examples 1-9, row 6: Normal Saline, polymer 1 mg/ml, sodium DOC 1 mg/ml, paclitaxel 0.20 mg/ml, 20% loading): <1 h | Stability (Examples 1-9, row 7: 5% Dextrose, polymer 1 mg/ml, sodium DOC 1 mg/ml, paclitaxel 0.10 mg/ml, 10% loading): >8 h | Stability (Examples 1-9, row 8: 5% Dextrose, polymer 1 mg/ml, sodium DOC 1 mg/ml, paclitaxel 0.15 mg/ml, 15% loading): >6 h | Stability (Examples 1-9, row 9: 5% Dextrose, polymer 1 mg/ml, sodium DOC 1 mg/ml, paclitaxel 0.20 mg/ml, 20% loading): >4 h | Stability (Examples 10-12, row 1: 5% Dextrose, polymer 1 mg/ml, sodium DOC 1 mg/ml, paclitaxel 0.20 mg/ml, 20% loading): >4 h | Stability (Examples 10-12, row 2: 5% Dextrose, polymer 1 mg/ml, sodium DOC 1 mg/ml, paclitaxel 0.25 mg/ml, 25% loading): <4 h | Stability (Examples 10-12, row 3: 5% Dextrose, polymer 1 mg/ml, sodium DOC 1 mg/ml, paclitaxel 0.30 mg/ml, 30% loading): <4 h | Stability (Examples 13-14, row 1: 5% Dextrose (pH 5.1), polymer 1 mg/ml, sodium DOC 1 mg/ml, paclitaxel 0.20 mg/ml, 20% loading): >4 h | Stability (Examples 13-14, row 2: 10% Dextrose (pH 5.1), polymer 1 mg/ml, sodium DOC 1 mg/ml, paclitaxel 0.20 mg/ml, 20% loading): >6 h | Stability (Examples 15-17, row 1: 10% Dextrose (pH 3.9), polymer 1 mg/ml, sodium DOC 1 mg/ml, sodium citrate 0.00 mg/ml, pH 6.28, paclitaxel 0.20 mg/ml): <1 h | Stability (Examples 15-17, row 2: 10% Dextrose (pH 3.9), polymer 1 mg/ml, sodium DOC 1 mg/ml, sodium citrate 0.06 mg/ml, pH 6.36, paclitaxel 0.20 mg/ml): >6 h | Stability (Examples 15-17, row 3: 10% Dextrose (pH 3.9), polymer 1 mg/ml, sodium DOC 1 mg/ml, sodium citrate 0.12 mg/ml, pH 6.53, paclitaxel 0.20 mg/ml): >4 h | Stability (Examples 19-23, row 1: 10% Dextrose, polymer 1 mg/ml, sodium DOC 1 mg/ml, pH 6.45, paclitaxel 0.20 mg/ml): >6 h | Stability (Examples 19-23, row 2: 10% Dextrose, polymer 0.5 mg/ml, sodium DOC 0.5 mg/ml, pH 6.44, paclitaxel 0.20 mg/ml): >6 h | Stability (Examples 19-23, row 3: 10% Dextrose, polymer 0.25 mg/ml, sodium DOC 0.25 mg/ml, pH 6.46, paclitaxel 0.20 mg/ml): >6 h | Stability (Examples 19-23, row 4: 10% Dextrose, polymer 0.125 mg/ml, sodium DOC 0.125 mg/ml, pH 6.47, paclitaxel 0.20 mg/ml): >6 h | Stability (Examples 19-23, row 5: 10% Dextrose, polymer 0.0625 mg/ml, sodium DOC 0.0625 mg/ml, pH 6.44, paclitaxel 0.20 mg/ml): <6 h | Stability (Examples 24-27, row 1: 10% Dextrose, polymer 0.125 mg/ml, sodium DOC 0.03125 mg/ml, pH 6.4-6.8, paclitaxel 0.20 mg/ml): <1 h | Stability (Examples 24-27, row 2: 10% Dextrose, polymer 0.125 mg/ml, sodium DOC 0.0625 mg/ml, pH 6.4-6.8, paclitaxel 0.20 mg/ml): <2 h | Stability (Examples 24-27, row 3: 10% Dextrose, polymer 0.125 mg/ml, sodium DOC 0.09375 mg/ml, pH 6.4-6.8, paclitaxel 0.20 mg/ml): >6 h | Stability (Examples 24-27, row 4: 10% Dextrose, polymer 0.125 mg/ml, sodium DOC 0.125 mg/ml, pH 6.4-6.8, paclitaxel 0.20 mg/ml): >6 h | Stability (Examples 28-35: 10% Dextrose, polymer 0.125 mg/ml, sodium DOC 0.125 mg/ml, pH 6.4-6.8, paclitaxel 0.20 mg/ml): >6 h | Stability (Examples 28-35: 10% Dextrose, polymer 0.125 mg/ml, sodium DOC 0.125 mg/ml, pH 6.4-6.8, paclitaxel 0.50 mg/ml): <4 h | Stability (Examples 28-35: 10% Dextrose, polymer 0.125 mg/ml, sodium DOC 0.125 mg/ml, pH 6.4-6.8, paclitaxel 0.80 mg/ml): <2 h | Stability (Examples 28-35: 10% Dextrose, polymer 0.125 mg/ml, sodium DOC 0.125 mg/ml, pH 6.4-6.8, paclitaxel 2.4 mg/ml): <1 h | Stability (Examples 28-35: 10% Dextrose, polymer 0.125 mg/ml, sodium DOC 0.125 mg/ml, pH 6.4-6.8, paclitaxel 3.2 mg/ml): <0.5 h | Stability (Examples 28-35: 10% Dextrose, polymer 0.125 mg/ml, sodium DOC 0.125 mg/ml, pH 6.4-6.8, paclitaxel 4.0 mg/ml): <0.25 h | Stability (Examples 28-35: 10% Dextrose, polymer 0.125 mg/ml, sodium DOC 0.125 mg/ml, pH 6.4-6.8, paclitaxel 10.0 mg/ml): <0.083 h | Stability (Examples 28-35: 10% Dextrose, polymer 0.2 mg/ml, sodium DOC 0.2 mg/ml, pH 6.4-6.8, paclitaxel 0.80 mg/ml): <3 h | Stability (Examples 28-35: 10% Dextrose, polymer 0.3 mg/ml, sodium DOC 0.3 mg/ml, pH 6.4-6.8, paclitaxel 0.50 mg/ml): >6 h | Stability (Examples 28-35: 10% Dextrose, polymer 0.3 mg/ml, sodium DOC 0.3 mg/ml, pH 6.4-6.8, paclitaxel 0.60 mg/ml): <6 h | Stability (Examples 28-35: 10% Dextrose, polymer 0.3 mg/ml, sodium DOC 0.3 mg/ml, pH 6.4-6.8, paclitaxel 0.70 mg/ml): <4 h | Stability (Examples 28-35: 10% Dextrose, polymer 0.3 mg/ml, sodium DOC 0.3 mg/ml, pH 6.4-6.8, paclitaxel 0.80 mg/ml): <2 h | Stability (Examples 36-40, row 1: 10% Dextrose, polymer 0.3 mg/ml, sodium DOC 0 mg/ml, pH 6.4-6.8, paclitaxel 0.60 mg/ml): <0.5 h | Stability (Examples 36-40, row 2: 10% Dextrose, polymer 0.3 mg/ml, sodium DOC 0.10 mg/ml, pH 6.4-6.8, paclitaxel 0.60 mg/ml): <1 h | Stability (Examples 36-40, row 3: 10% Dextrose, polymer 0.3 mg/ml, sodium DOC 0.15 mg/ml, pH 6.4-6.8, paclitaxel 0.60 mg/ml): <4 h | Stability (Examples 36-40, row 4: 10% Dextrose, polymer 0.3 mg/ml, sodium DOC 0.2 mg/ml, pH 6.4-6.8, paclitaxel 0.60 mg/ml): >8 h | Stability (Examples 36-40, row 5: 10% Dextrose, polymer 0.3 mg/ml, sodium DOC 0.25 mg/ml, pH 6.4-6.8, paclitaxel 0.60 mg/ml): >8 h
